Measurements taken from PubChem BioAssay AID624254 (Broad Institute, 2012).
Active and inactive are the calls of the source. No rule for the calls is given here.

test: Luciferase light induction in v cholerae bh1651, agonist dose response, confirmatory (AID 624254); settings: V. cholerae BH1651 luxOD47E, luciferase light induction, 6 h; at 50 µM (top of the series)

Compound	activation (light increase)
COc1ccc(S(=O)(=O)N2CCCCC2)cc1NC(=O)c1ccc(OC)c(OC)c1	inactive
COC(=O)c1cc(C(=O)OCC(=O)c2ccc3c(c2)NC(=O)CO3)cc([N+](=O)[O-])c1	inactive
COc1ccccc1CCNC(=O)C(=O)NCCC1CCCCN1S(=O)(=O)c1cccs1 (stereo not drawn)	inactive
CCCn1nnnc1NCc1ccc(N(CC)CC)cc1	inactive
CC(=O)c1cc2c(cc1NS(=O)(=O)c1ccccc1)OCO2	inactive
COc1cccc(CN(C)C(=O)CSC(C)C(=O)Nc2cc(C)on2)c1OC (stereo not drawn)	inactive
Cc1ccc(Oc2ccc(Cl)cc2NC(=O)c2cnccn2)cc1	inactive
Cc1ccc(C(=O)OCC(=O)Nc2ccccc2)cc1NC(=O)c1ccco1	inactive
Cc1ccc2occ(C(c3nnnn3Cc3ccccc3)N3CCOCC3)c(=O)c2c1 (stereo not drawn)	inactive
CCCC(=O)NC1CCCc2c1cnn2-c1ccc(C)c(C)c1 (stereo not drawn)	inactive
O=C(NCCS(=O)(=O)N1CCN(c2ccccc2)CC1)c1ccco1	inactive
CC(C)(C)c1nc(N2CCN(C(=O)c3ccco3)CC2)c2nnn(Cc3ccccc3)c2n1	inactive
Cc1noc(C)c1NC(=O)Nc1cccc2c1O[C@H](CN(C)S(=O)(=O)c1ccccc1)[C@@H](C)CN([C@H](C)CO)C2=O	inactive
O=C(COC(=O)CNC(=O)c1ccco1)NCCN1C(=O)CSC1=O	inactive
Cc1ccc(S(=O)(=O)N2CCN(C(=O)COC(=O)/C=C/c3ccc(F)cc3)CC2)c(C)c1	inactive
Cn1c(=O)oc2cc(S(=O)(=O)N3CCN(c4ccc(F)cc4)CC3)ccc21	inactive
CCCn1nnnc1SCC(=O)c1ccc2c(c1)OCCO2	inactive

Compound	activation (light increase)
Cc1cccc(-c2noc(-c3ccccc3C(=O)NCC3CCCO3)n2)c1 (stereo not drawn)	inactive
CCOc1ccc(CNC(=O)Cn2c(=O)c3cccn3c3ccccc32)cc1	inactive
COC(=O)c1sc2ncccc2c1OCc1c(Cl)cccc1Cl	inactive
CCOC(=O)Cc1c(C)[nH]c(=S)[nH]c1=O	inactive
CC(C)CC(=O)Nc1ccccc1N1CCN(C(=O)c2ccccc2)CC1	inactive
Cn1nc(-c2ccc(OCC(=O)NCC3CCCO3)cc2)c2ccccc2c1=O (stereo not drawn)	inactive
Cc1noc(C)c1NC(=O)Nc1cccc2c1O[C@H](CN(C)S(=O)(=O)c1cccs1)[C@H](C)CN([C@@H](C)CO)C2=O	inactive
O=S(=O)(Cc1ccc(Cl)cc1)N1CCN(Cc2ccccc2)CC1	inactive
CC(=O)N1CCC(=O)N(C(C)C)c2ccccc21	inactive
CCCCN(Cc1nc2ccccc2c(=O)[nH]1)C(=O)CN1C(=O)NC2(CCCCC2)C1=O	inactive
Cc1nn(-c2ccccc2)c(C)c1NC(=O)COC(=O)c1cccc(OC(F)F)c1	inactive
CCN(CC)c1ccc(CNc2nnnn2C)cc1	inactive
O=C(NCCC(=O)N1CCN(c2ccc(F)cc2)CC1)c1ccco1	inactive
CCCCc1cc2c(cc1NC(=O)CN1CCCCC1)OCCO2	inactive
O=C(CCNC(=O)c1ccc(Cl)cc1)NCC(c1ccco1)N1CCCCC1 (stereo not drawn)	inactive
CN(CC(=O)Nc1ccc(OC(F)(F)F)cc1)C(=O)C1CCC1	inactive
